Laboratory results from patent publication US20130296311A1, “INHIBITORS OF HCV NS5A” (PRESIDIO PHARMACEUTICALS, INC., priority 2010, published 2013).

Tested on: HCV 1b_Huh-Luc/Neo-ET cell line persistently expressing a bicistronic genotype 1b replicon in Huh 7 cells
Experiment: HCV replicon assay (luciferase readout, 72 h)
Type: cell-based, HCV genotype 1b
Conditions: Hepatitis C virus, Huh-7, 72 h, read-out: Inhibition of HCV genotype 1b
Summary of the method: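 EC50 values come from a four-parameter fit of luciferase signal as % of untreated control, repeated across several determinations. The signal is from the HCV 1b_Huh-Luc/Neo-ET replicon line, dosed in triplicate one day post-plating and incubated 72 h before Bright-Glo readout.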

Structure (SMILES) | EC50
COC(=O)N[C@@H](CC(=O)N1CCC[C@H]1c1ncc(-c2ccc(C#Cc3ccc4nc([C@@H]5CCCN5C(=O)C[C@H](NC(=O)OC)C(C)C)[nH]c4c3)cc2)[nH]1)C(C)C [Compound 1064] | 10 to 999 nM
COC(=O)N[C@H](CC(=O)N1CCC[C@H]1c1ncc(-c2ccc(C#Cc3ccc4nc([C@@H]5CCCN5C(=O)C[C@@H](NC(=O)OC)C(C)C)[nH]c4c3)cc2)[nH]1)C(C)C [Compound 1065] | 10 to 999 nM
COCCOc1c(C#Cc2ccc3nc([C@@H]4CCCN4C(=O)[C@@H](NC(=O)OC)C(C)C)[nH]c3c2)ccc(-c2cnc([C@@H]3CCCN3C(=O)[C@H](NC(=O)OC)C(C)C)[nH]2)c1OCCOC [Compound 1066] | < 1 nM
COC(=O)N[C@@H](CC(C)C)C(=O)N1CCC[C@H]1c1ncc(-c2ccc(C#Cc3ccc4nc([C@@H]5CCCN5C(=O)[C@H](CC(C)C)NC(=O)OC)[nH]c4c3)cc2)[nH]1 [Compound 1067] | < 1 nM
COC(=O)N[C@H](C(=O)N1CC[C@H](O)[C@H]1c1ncc(-c2ccc(C#Cc3ccc4nc([C@@H]5CCCN5C(=O)[C@@H](NC(=O)OC)C(C)C)[nH]c4c3)cc2)[nH]1)C(C)C [Compound 1068] | < 1 nM
COC(=O)N[C@H](C(=O)N1CCC[C@H]1c1ncc(-c2ccc(C#Cc3ccc4nc([C@@H]5CCCN5C(=O)[C@@H](NC(=O)OC)C5CCOCC5)[nH]c4c3)cc2F)[nH]1)C1CCOCC1 [Compound 1070] | < 1 nM
COC(=O)N[C@H](C(=O)N1CCC[C@H]1c1nc(-c2cnc3cc(C#Cc4cnc([C@@H]5CCCN5C(=O)[C@@H](NC(=O)OC)C(C)C)[nH]4)ccc3c2)c[nH]1)C(C)C [Compound 1076] | < 1 nM
COC(=O)N[C@H](C(=O)N1CCC[C@H]1c1nc(-c2ccc3cc(C#Cc4cnc([C@@H]5CCCN5C(=O)[C@H](NC(=O)OC)c5ccccc5)[nH]4)ccc3c2)c[nH]1)C(C)C [Compound 1077] | < 1 nM
COC(=O)N[C@H](C(=O)N1CCC[C@H]1c1nc(-c2ccc3cc(C#Cc4cnc([C@@H]5CCCN5C(=O)[C@@H](NC(=O)OC)C(C)C)[nH]4)ccc3c2)c[nH]1)c1ccccc1 [Compound 1078] | < 1 nM
COC(=O)N[C@H](C(=O)N1CCC[C@H]1c1nc(-c2ccc3cc(C#Cc4cnc([C@@H]5CCCN5C(=O)[C@@H](NC(=O)OC)C5CCOCC5)[nH]4)ccc3c2)c[nH]1)C(C)C [Compound 1079] | < 1 nM
COC(=O)N[C@H](C(=O)N1CCC[C@H]1c1ncc(C#Cc2ccc3cc(-c4cnc([C@@H]5CCCN5C(=O)[C@@H](NC(=O)OC)C5CCOCC5)[nH]4)ccc3c2)[nH]1)C1CCOCC1 [Compound 1080] | < 1 nM
COC(=O)N[C@H](C(=O)N1CCC[C@H]1c1nc(-c2ccc3cc(C#Cc4[nH]c([C@@H]5CCCN5C(=O)[C@@H](NC(=O)OC)C(C)C)nc4C)ccc3c2)c[nH]1)C(C)C [Compound 1081] | < 1 nM
COC(=O)N[C@H](C(=O)N1CCC[C@H]1c1nc(-c2ccc3cc(C#Cc4[nH]c([C@@H]5CCCN5C(=O)[C@@H](NC(=O)OC)C(C)C)nc4C(F)(F)F)ccc3c2)c[nH]1)C(C)C [Compound 1082] | < 1 nM
COC(=O)N[C@H](C(=O)N1CCC[C@H]1c1ncc(C#Cc2ccc(-c3ccc4nc([C@@H]5CCCN5C(=O)[C@@H](NC(=O)OC)C(C)C)[nH]c4c3)cc2)[nH]1)C(C)C [Compound 1084] | < 1 nM
COC(=O)N[C@H](C(=O)N1CCC[C@H]1c1nc2ccc(-c3ccc(C#Cc4cnc([C@@H]5CCCN5C(=O)[C@H](NC(=O)OC)c5ccccc5)[nH]4)cc3)cc2[nH]1)C(C)C [Compound 1085] | < 1 nM
COC(=O)N[C@H](C(=O)N1CCC[C@H]1c1ncc(C#Cc2ccc(-c3ccc4nc([C@@H]5CCCN5C(=O)[C@@H](NC(=O)OC)C(C)C)[nH]c4c3)nc2)[nH]1)C(C)C [Compound 1086] | < 1 nM

Structure (SMILES) | EC50
COC(=O)N[C@H](C(=O)N1CCC[C@H]1c1ncc(C#Cc2ccc(-c3ccc4nc([C@@H]5CCCN5C(=O)[C@H](NC(=O)OC)c5ccccc5)[nH]c4c3)nc2)[nH]1)C(C)C [Compound 1087] | < 1 nM
COC(=O)N[C@H](C(=O)N1CCC[C@H]1c1nc(-c2cnc3cc(C#Cc4ccc(-c5cnc([C@@H]6CCCN6C(=O)[C@@H](NC(=O)OC)C(C)C)[nH]5)cc4)ccc3c2)c[nH]1)C(C)C [Compound 1088] | 1 to 9.9 nM
COC(=O)N[C@H](C(=O)N1CCC[C@H]1c1nc(-c2cnc3cc(C#Cc4ccc(-c5cnc([C@@H]6CCCN6C(=O)[C@@H](NC(=O)OC)c6ccccc6)[nH]5)cc4)ccc3c2)c[nH]1)c1ccccc1 [Compound 1089] | 10 to 999 nM
COC(=O)N[C@H](C(=O)N1CCC[C@H]1c1nc2c([nH]1)-c1ccc(C#Cc3ccc(-c4cnc([C@@H]5CCCN5C(=O)[C@@H](NC(=O)OC)C5CCOCC5)[nH]4)cc3)cc1CC2)C(C)C [Compound 1091] | < 1 nM
COC(=O)N[C@H](C(=O)N1CCC[C@H]1c1nc2ccc3cc(C#Cc4ccc(-c5cnc([C@@H]6CCCN6C(=O)[C@@H](NC(=O)OC)C6CCOCC6)[nH]5)cc4)ccc3c2[nH]1)C(C)C [Compound 1092] | < 1 nM
COC(=O)N[C@H](C(=O)N1CCC[C@H]1c1nc2ccc3cc(C#Cc4ccc(-c5cnc([C@@H]6CCCN6C(=O)[C@H](NC(=O)OC)c6ccccc6)[nH]5)cc4)ccc3c2[nH]1)C(C)C [Compound 1093] | < 1 nM
COC(=O)N[C@H](C(=O)N1CCC[C@H]1c1ncc(-c2ccc(C#Cc3ccc4c(c3)CCc3nc([C@@H]5CCCN5C(=O)[C@@H](NC(=O)OC)C(C)C)[nH]c3-4)cc2)[nH]1)C(C)C [Compound 1094] | < 1 nM
COC(=O)N[C@H](C(=O)N1CCC[C@H]1c1ncc(-c2ccc(C#Cc3ccc4c(ccc5nc([C@@H]6CCCN6C(=O)[C@@H](NC(=O)OC)C(C)C)[nH]c54)c3)cc2)[nH]1)C(C)C [Compound 1095] | < 1 nM
COC(=O)N[C@H](C(=O)N1CCC[C@H]1c1ncc(-c2ccc(C#Cc3ccc4c(c3)CCCc3nc([C@@H]5CCCN5C(=O)[C@@H](NC(=O)OC)C(C)C)[nH]c3-4)cc2)[nH]1)C(C)C [Compound 1096] | < 1 nM
COC(=O)N[C@H](C(=O)N1CCC[C@H]1c1nc2c([nH]1)-c1ccc(C#Cc3ccc(-c4cnc([C@@H]5CCCN5C(=O)[C@@H](NC(=O)OC)C5CCOCC5)[nH]4)cc3)cc1CCC2)C(C)C [Compound 1097] | < 1 nM
COC(=O)N[C@H](C(=O)N1CCC[C@H]1c1nc2c([nH]1)-c1ccc(C#Cc3ccc(-c4cnc([C@@H]5CCCN5C(=O)[C@H](NC(=O)OC)c5ccccc5)[nH]4)cc3F)cc1CC2)C(C)C [Compound 1098] | < 1 nM
COC(=O)N[C@H](C(=O)N1CCC[C@H]1c1nc2ccc3cc(C#Cc4ccc(-c5cnc([C@@H]6CCCN6C(=O)[C@@H](NC(=O)OC)C6CCOCC6)[nH]5)cc4F)ccc3c2[nH]1)C(C)C [Compound 1099] | < 1 nM
COC(=O)N[C@H](C(=O)N1CCC[C@H]1c1nc2ccc3cc(C#Cc4ccc(-c5cnc([C@@H]6CCCN6C(=O)[C@H](NC(=O)OC)c6ccccc6)[nH]5)cc4F)ccc3c2[nH]1)C(C)C [Compound 1100] | < 1 nM
COC(=O)N[C@H](C(=O)N1CCC[C@H]1c1nc2c([nH]1)-c1ccc(C#Cc3ccc4nc([C@@H]5CCCN5C(=O)[C@@H](NC(=O)OC)C(C)C)[nH]c4c3)cc1CC2)C(C)C [Compound 1101] | < 1 nM
COC(=O)N[C@H](C(=O)N1CCC[C@H]1c1nc2c([nH]1)-c1ccc(C#Cc3ccc4nc([C@@H]5CCCN5C(=O)[C@@H](NC(=O)OC)C5CCOCC5)[nH]c4c3)cc1CC2)C(C)C [Compound 1102] | < 1 nM
